#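 Briefly, cells in 96-well plates were exposed to five compound concentrations for 48 h, and endpoints were estimated by linear interpolation. Abbreviation: GI50, concentration required for 50% inhibition of growth.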 The source made the active and inactive calls. Cut-off read from the data, not from the text of the source: active = GI50 up to about 1.1 µM and inactive = higher.
# How the values were obtained:
# Assay in all cases: inhibition of tumour cell growth, NCI panel, 48 h
# [1] = system: SNB-19
# [2] = system: HCC 2998
# [3] = system: MCF7
# [4] = system: Hs-578T
# [5] = system: ACHN
# [6] = system: DU-145
# [7] = system: SF-295
# [8] = system: K562
# [9] = system: UACC-62
# [10] = system: KM12
# [11] = system: SK-MEL-2
# [12] = system: SK-MEL-28
# [13] = system: SF-539
# [14] = system: NCI-H460
# [15] = system: SF-268
# [16] = system: NCI-H226
# [17] = system: HOP-92
# [18] = system: SNB-75
# [19] = system: HOP-62
# [20] = system: HCT-116
SMILES,GI50 [1],GI50 [2],GI50 [3],GI50 [4],GI50 [5],GI50 [6],GI50 [7],GI50 [8],GI50 [9],GI50 [10],GI50 [11],GI50 [12],GI50 [13],GI50 [14],GI50 [15],GI50 [16],GI50 [17],GI50 [18],GI50 [19],GI50 [20]
CC(=O)O[C@H]1C[C@H](O[C@H]2[C@@H](O)C[C@H](O[C@H]3[C@@H](O)C[C@H](O[C@H]4CC[C@@]5(C)[C@H](CC[C@@H]6[C@@H]5CC[C@]5(C)[C@@H](C7=CC(=O)OC7)CC[C@]65O)C4)O[C@@H]3C)O[C@@H]2C)O[C@H](C)[C@H]1O[C@@H]1O[C@H](CO)[C@@H](O)[C@H](O)[C@H]1O,0.0658 µM (active),0.0615 µM (active),0.013 µM (active),< 0.01 µM (active),< 0.01 µM (active),< 0.01 µM (active),< 0.0161 µM (active),0.0815 µM (active),0.132 µM (active),0.065 µM (active),0.0452 µM (active),0.136 µM (active),< 0.014 µM (active),< 0.01 µM (active),< 0.0125 µM (active),0.103 µM (active),0.048 µM (active),0.0687 µM (active),< 0.01 µM (active),< 0.01 µM (active)
CCN(CCN(CC)C(=O)NC)C(=O)NC,> 100 µM (inactive),> 100 µM (inactive),> 100 µM (inactive),> 100 µM (inactive),> 100 µM (inactive),> 100 µM (inactive),> 100 µM (inactive),> 100 µM (inactive),> 100 µM (inactive),,> 100 µM (inactive),> 100 µM (inactive),,> 100 µM (inactive),> 100 µM (inactive),> 100 µM (inactive),> 100 µM (inactive),> 100 µM (inactive),> 100 µM (inactive),> 100 µM (inactive)
CCCCC1Cc2cc(O)ccc2-c2nc3cc(O)ccc3n21.CCCCC1Cc2cc(O)ccc2-c2nc3ccc(O)cc3n21 (stereo unspecified),11 µM (inactive),14.3 µM (inactive),19.2 µM (inactive),16.3 µM (inactive),13.9 µM (inactive),28.5 µM (inactive),15.2 µM (inactive),10.7 µM (inactive),12.8 µM (inactive),19.4 µM (inactive),,,14.8 µM (inactive),14.8 µM (inactive),12 µM (inactive),18.4 µM (inactive),4.28 µM (inactive),,14.4 µM (inactive),14 µM (inactive)
CC(=N\N)/C(C)=N/N=C(C)/C(C)=N/N,> 100 µM (inactive),> 100 µM (inactive),> 100 µM (inactive),> 100 µM (inactive),> 100 µM (inactive),> 100 µM (inactive),> 100 µM (inactive),> 10 µM (inactive),,> 100 µM (inactive),> 100 µM (inactive),> 100 µM (inactive),> 100 µM (inactive),> 100 µM (inactive),> 100 µM (inactive),> 100 µM (inactive),> 100 µM (inactive),> 100 µM (inactive),> 100 µM (inactive),> 100 µM (inactive)
O=C1NC(=O)C(CCC(=O)c2cccc3ccccc23)C(=O)N1,> 100 µM (inactive),> 100 µM (inactive),> 100 µM (inactive),> 100 µM (inactive),> 100 µM (inactive),> 100 µM (inactive),60.1 µM (inactive),> 100 µM (inactive),> 100 µM (inactive),> 100 µM (inactive),> 100 µM (inactive),> 100 µM (inactive),> 100 µM (inactive),> 100 µM (inactive),> 100 µM (inactive),77.8 µM (inactive),> 100 µM (inactive),26.4 µM (inactive),,> 100 µM (inactive)
COC(=O)C12CCC(C(F)(F)C1=O)C2(C)C (stereo unspecified),> 100 µM (inactive),> 100 µM (inactive),> 100 µM (inactive),> 100 µM (inactive),> 100 µM (inactive),> 100 µM (inactive),> 100 µM (inactive),,> 100 µM (inactive),> 100 µM (inactive),> 100 µM (inactive),> 100 µM (inactive),> 100 µM (inactive),> 100 µM (inactive),> 100 µM (inactive),> 100 µM (inactive),> 100 µM (inactive),> 100 µM (inactive),> 100 µM (inactive),> 100 µM (inactive)
NCCc1ccc2c(c1)C(=O)c1c(O)ccc(O)c1C2=O,4.72 µM (inactive),> 23.9 µM (inactive),3.51 µM (inactive),5.98 µM (inactive),4.46 µM (inactive),> 19.8 µM (inactive),4.62 µM (inactive),3.94 µM (inactive),5.86 µM (inactive),4.72 µM (inactive),6.55 µM (inactive),,3.02 µM (inactive),> 20.7 µM (inactive),4.13 µM (inactive),17 µM (inactive),4.05 µM (inactive),4.57 µM (inactive),3.6 µM (inactive),2.69 µM (inactive)
